Source: patent US8569302B2, “Inhibitors of flaviviridae viruses” (Gilead Sciences, Inc., priority 2009, dated 2013)

Each molecule was assayed on human hepatoma Huh-7 cell line harboring a HCV replicon (assay: HCV replicon assay (inhibition of viral replication, luciferase readout)). Conditions: Hepatitis C virus, 72 h, Huh-7 HCV replicon cells, 3 days incubation.
Type: cell-based
Method in brief: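 Read-outs: luciferase luminescence for replication inhibition, corrected by ITMN-191 (100% inhibition) wells, and calcein AM fluorescence for cytotoxicity. Cells were treated for 3 days at 37 °C with ten 3-fold compound dilutions in 0.44% final DMSO. Percent inhibition relative to DMSO was fitted with a Hill equation to give EC50 and CC50.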
With `CC(C)(C)C#Cc1cc(N(C(=O)[C@H]2CC[C@H](C)CC2)C2CCC(Oc3cc[n+]([O-])cc3)CC2)c(C(=O)O)s1` (stereo partly shown) [Compound 157, 5-(3,3-Dimethylbut-1-ynyl)-3-(4-methyl-N-(4-(pyridin-4-yloxy-N-oxide)cyclohexyl)cyclohexanecarboxamido)thiophene-2-carboxylic acid] the inhibition at 2 µM was 99.9%. For `CN(C)c1cc(O[C@H]2CC[C@H](N(c3cc(C#CC(C)(C)C)sc3C(=O)O)C(=O)[C@H]3CC[C@H](C)CC3)CC2)ncn1` [Compound 158, 3-(N-(4-(6-(Dimethylamino)pyrimidin-4-yloxy)cyclohexyl)-4-methylcyclohexanecarboxamido)-5-(3,3-dimethylbut-1-ynyl)thiophene-2-carboxylic acid], the inhibition at 2 µM was 99.9%. In the case of `CC(C)(C)C#Cc1cc(N(C(=O)[C@H]2CC[C@H](C)CC2)[C@H]2CC[C@H](Oc3ccc(N4CCCC4)nn3)CC2)c(C(=O)O)s1` [Compound 159, 5-(3,3-Dimethylbut-1-ynyl)-3-(4-methyl-N-(4-(6-(pyrrolidin-1-yl)pyridazin-3-yloxy)cyclohexyl)cyclohexanecarboxamido)thiophene-2-carboxylic acid], the inhibition at 2 µM is reported as 99.8%. In the case of `CN(C)c1ccc(O[C@H]2CC[C@H](N(c3cc(C#CC(C)(C)C)sc3C(=O)O)C(=O)[C@H]3CC[C@H](C)CC3)CC2)nn1` [Compound 160, 3-(N-(4-(6-(Dimethylamino)pyridazin-3-yloxy)cyclohexyl)-4-methylcyclohexanecarboxamido)-5-(3,3-dimethylbut-1-ynyl)thiophene-2-carboxylic acid], the inhibition at 2 µM is reported as 99.9%. For `CC(C)(C)C#Cc1cc(N(C(=O)[C@H]2CC[C@H](C)CC2)[C@H]2CC[C@H](Oc3nc(CN4CCCC4)ns3)CC2)c(C(=O)O)s1` [Compound 161, 5-(3,3-Dimethylbut-1-ynyl)-3-(4-methyl-N-(4-(3-(pyrrolidin-1-ylmethyl)-1,2,4-thiadiazol-5-yloxy)cyclohexyl)cyclohexanecarboxamido)thiophene-2-carboxylic acid], the inhibition at 2 µM was 99.9%. Molecule `CC(C)(C)C#Cc1cc(N(C(=O)[C@H]2CC[C@H](C)CC2)[C@H]2CC[C@H](Oc3cncnc3)CC2)c(C(=O)O)s1` [Compound 162, 5-(3,3-Dimethylbut-1-ynyl)-3-(4-methyl-N-(4-(pyrimidin-5-yloxy)cyclohexyl)cyclohexanecarboxamido)thiophene-2-carboxylic acid] has an inhibition at 2 µM of 99.9%. With `CC(C)(C)C#Cc1cc(N(C(=O)[C@H]2CC[C@H](C)CC2)[C@H]2CC[C@H](Oc3ccncn3)CC2)c(C(=O)O)s1` [Compound 163, 5-(3,3-Dimethylbut-1-ynyl)-3-(4-methyl-N-(4-(pyrimidin-4-yloxy)cyclohexyl)cyclohexanecarboxamido)thiophene-2-carboxylic acid] the inhibition at 2 µM was 100%. Molecule `CC(C)(C)C#Cc1cc(N(C(=O)[C@H]2CC[C@H](C)CC2)[C@H]2CC[C@H](Oc3cc(C(=O)N4CCCC4)ccn3)CC2)c(C(=O)O)s1` [Compound 166, Sodium 5-(3,3-dimethylbut-1-ynyl)-3-(4-methyl-N-(4-(4-(pyrrolidine-1-carbonyl)pyridin-2-yloxy)cyclohexyl)cyclohexanecarboxamido)thiophene-2-carboxylate] has an inhibition at 2 µM of 99.9%. Work on `CN1CCC(NC(=O)c2ccnc(O[C@H]3CC[C@H](N(c4cc(C#CC(C)(C)C)sc4C(=O)O)C(=O)[C@H]4CC[C@H](C)CC4)CC3)c2)CC1` [Compound 167, Sodium 3-(N-(4-(4-((1-methylpiperidin-4-yl)carbamoyl)pyridin-2-yloxy)cyclohexyl)-4-methylcyclohexanecarboxamido)-5-(3,3-dimethylbut-1-ynyl)thiophene-2-carboxylate] yielded an inhibition at 2 µM of 99.9%. `CC(C)(C)C#Cc1cc(N(C(=O)[C@H]2CC[C@H](C)CC2)[C@H]2CC[C@H](Oc3cc(C(=O)N4CCC4)ccn3)CC2)c(C(=O)O)s1` [Compound 168, Sodium 3-(N-(4-(4-(azetidine-1-carbonyl)pyridin-2-yloxy)cyclohexyl)-4-methylcyclohexanecarboxamido)-5-(3,3-dimethylbut-1-ynyl)thiophene-2-carboxylate] showed an inhibition at 2 µM of 99.9%. Molecule `CN(C)C1CCN(C(=O)c2ccnc(O[C@H]3CC[C@H](N(c4cc(C#CC(C)(C)C)sc4C(=O)O)C(=O)[C@H]4CC[C@H](C)CC4)CC3)c2)C1` (stereo partly shown) [Compound 169, Sodium 3-(N-(4-(4-(3-(dimethylamino)pyrrolidine-1-carbonyl)pyridin-2-yloxy)cyclohexyl)-4-methylcyclohexanecarboxamido)-5-(3,3-dimethylbut-1-ynyl)thiophene-2-carboxylate] has an inhibition at 2 µM of 100%. Work on `CC(C)(C)C#Cc1cc(N(C(=O)[C@H]2CC[C@H](C)CC2)[C@H]2CC[C@H](Oc3ccc(CN4CCCC4=O)cn3)CC2)c(C(=O)O)s1` [Compound 170, Sodium 5-(3,3-dimethylbut-1-ynyl)-3-(4-methyl-N-(4-(5-((2-oxopyrrolidin-1-yl)methyl)pyridin-2-yloxy)cyclohexyl)cyclohexanecarboxamido)thiophene-2-carboxylate] yielded an inhibition at 2 µM of 99.9%. In the case of `CC(C)(C)C#Cc1cc(N(C(=O)[C@H]2CC[C@H](C)CC2)[C@@H]2CCC(Oc3ccccn3)C(CN3CCCC3)C2)c(C(=O)O)s1` (stereo partly drawn) [Compound 171, Sodium 5-(3,3-dimethylbut-1-ynyl)-3-(4-methyl-N-((1R)-4-(pyridin-2-yloxy)-3-(pyrrolidin-1-ylmethyl)cyclohexyl)cyclohexanecarboxamido)thiophene-2-carboxylate], the inhibition at 2 µM is reported as 99.7%. With `Cn1nc(O[C@H]2CC[C@@H](N(c3cc(C#CC(C)(C)C)sc3C(=O)O)C(=O)[C@H]3CC[C@H](C)CC3)CC2)ccc1=O` [Compound 173, Sodium 5-(3,3-dimethylbut-1-ynyl)-3-(4-methyl-N-(4-(1-methyl-6-oxo-1,6-dihydropyridazin-3-yloxy)cyclohexyl)cyclohexanecarboxamido)thiophene-2-carboxylate] the inhibition at 2 µM was 100%. For `Cn1nc(O[C@H]2CC[C@H](N(c3cc(C#CC(C)(C)C)sc3C(=O)O)C(=O)[C@H]3CC[C@H](C)CC3)CC2)ccc1=O` [Compound 174, 5-(3,3-Dimethylbut-1-ynyl)-3-(4-methyl-N-(4-(1-methyl-6-oxo-1,6-dihydropyridazin-3-yloxy)cyclohexyl)cyclohexanecarboxamido)thiophene-2-carboxylic acid], the inhibition at 2 µM was 100%. In the case of `CN(C)Cc1ccnc(O[C@H]2CC[C@@H](N(c3cc(C#CC(C)(C)C)sc3C(=O)O)C(=O)[C@H]3CC[C@H](C)CC3)CC2)c1` [Compound 175, Sodium 3-(N-(4-(4-((dimethylamino)methyl)pyridin-2-yloxy)cyclohexyl)-4-methylcyclohexanecarboxamido)-5-(3,3-dimethylbut-1-ynyl)thiophene-2-carboxylate], the inhibition at 2 µM is reported as 100%. Work on `CC(C)(C)C#Cc1cc(N(C(=O)[C@H]2CC[C@H](C)CC2)[C@H]2CC[C@H](Oc3ccc4nccn4n3)CC2)c(C(=O)O)s1` [Compound 176, Sodium 5-(3,3-dimethylbut-1-ynyl)-3-(N-(4-(imidazo[1,2-b]pyridazin-6-yloxy)cyclohexyl)-4-methylcyclohexanecarboxamido)thiophene-2-carboxylate] yielded an inhibition at 2 µM of 99.8%. `CC(C)(C)C#Cc1cc(N(C(=O)[C@H]2CC[C@H](C)CC2)[C@H]2CC[C@@H](Oc3ccc(Cl)nn3)CC2)c(C(=O)O)s1` [Compound 177, 3-(N-(4-(6-Chloropyridazin-3-yloxy)cyclohexyl)-4-methylcyclohexanecarboxamido)-5-(3,3-dimethylbut-1-ynyl)thiophene-2-carboxylic acid] gave an inhibition at 2 µM of 99.6%. With `CC(C)(C)C#Cc1cc(N(C(=O)[C@H]2CC[C@H](C)CC2)[C@H]2CC[C@@H](Oc3ccc(O)nn3)CC2)c(C(=O)O)s1` [Compound 178, 5-(3,3-Dimethylbut-1-ynyl)-3-(N-(4-(6-hydroxypyridazin-3-yloxy)cyclohexyl)-4-methylcyclohexanecarboxamido)thiophene-2-carboxylic acid] the inhibition at 2 µM was 100%. For `CC(C)(C)C#Cc1cc(N(C(=O)[C@H]2CC[C@H](C)CC2)[C@H]2CC[C@@H](Oc3cncnc3)CC2)c(C(=O)O)s1` [Compound 179, 5-(3,3-Dimethylbut-1-ynyl)-3-(4-methyl-N-(4-(pyrimidin-5-yloxy)cyclohexyl)cyclohexanecarboxamido)thiophene-2-carboxylic acid], the inhibition at 2 µM was 99.5%. Molecule `CC(C)(C)C#Cc1cc(N(C(=O)[C@H]2CC[C@H](C)CC2)[C@H]2CC[C@@H](Oc3cccnc3)CC2)c(C(=O)O)s1` [Compound 180, 5-(3,3-Dimethylbut-1-ynyl)-3-(4-methyl-N-(4-(pyridin-3-yloxy)cyclohexyl)cyclohexanecarboxamido)thiophene-2-carboxylic acid] has an inhibition at 2 µM of 99.6%. `CC(C)(C)C#Cc1cc(N(C(=O)[C@H]2CC[C@H](C)CC2)[C@H]2CC[C@@H](Oc3ncccn3)CC2)c(C(=O)O)s1` [Compound 181, 5-(3,3-Dimethylbut-1-ynyl)-3-(4-methyl-N-(4-(pyrimidin-2-yloxy)cyclohexyl)cyclohexanecarboxamido)thiophene-2-carboxylic acid] showed an inhibition at 2 µM of 98.3%. For `CC(C)(C)C#Cc1cc(N(C(=O)[C@H]2CC[C@H](C)CC2)[C@H]2CC[C@@H](Oc3cnc(Cl)cn3)CC2)c(C(=O)O)s1` [Compound 182, 3-(N-(4-(5-Chloropyrazin-2-yloxy)cyclohexyl)-4-methylcyclohexanecarboxamido)-5-(3,3-dimethylbut-1-ynyl)thiophene-2-carboxylic acid], the inhibition at 2 µM was 99%. `CC(C)(C)C#Cc1cc(N(C(=O)[C@H]2CC[C@H](C)CC2)[C@H]2CC[C@@H](Oc3ccnnc3)CC2)c(C(=O)O)s1` [Compound 183, 5-(3,3-Dimethylbut-1-ynyl)-3-(4-methyl-N-(4-(pyridazin-4-yloxy)cyclohexyl)cyclohexanecarboxamido)thiophene-2-carboxylic acid] gave an inhibition at 2 µM of 100%. `CC(C)(C)C#Cc1cc(N(C(=O)[C@H]2CC[C@H](C)CC2)[C@H]2CC[C@H](Oc3cnc(Cl)cn3)CC2)c(C(=O)O)s1` [Compound 184, 3-(N-(4-(5-Chloropyrazin-2-yloxy)cyclohexyl)-4-methylcyclohexanecarboxamido)-5-(3,3-dimethylbut-1-ynyl)thiophene-2-carboxylic acid] gave an inhibition at 2 µM of 97.8%.
